PubChem BioAssay (NCI)
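Briefly, cells in 96-well plates were exposed to five compound concentrations for 48 h, and endpoints were estimated by linear interpolation. GI50 is the concentration that inhibits growth by half. Definition used: TGI = concentration required for complete inhibition of growth.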

Columns and labels:
Assay in all cases: inhibition of tumour cell growth, NCI panel, 48 h
DMS 114 small cell lung = tested on: DMS 114 small cell lung
IGROV1 ovarian = tested on: IGROV1 ovarian
KM20L2 colon = tested on: KM20L2 colon
LXFL 529 NSCLC = tested on: LXFL 529 NSCLC
M19-MEL melanoma = tested on: M19-MEL melanoma
SR leukemia = tested on: SR leukemia
786-0 renal = tested on: 786-0 renal
BT-549 breast = tested on: BT-549 breast
HS 578T breast = tested on: HS 578T breast
MDA-MB-435 = tested on: MDA-MB-435
PC-3 prostate = tested on: PC-3 prostate
T-47D breast = tested on: T-47D breast
MDA-N = tested on: MDA-N
DLD-1 colon = tested on: DLD-1 colon

## O=C1C(Cl)N(c2ccc(Cl)cc2)C1c1c[nH]c2ccccc12 (stereo not drawn)
DMS 114 small cell lung
  TGI: 45.2 µM
IGROV1 ovarian
  TGI: 62.6 µM
KM20L2 colon
  TGI: 38.3 µM
LXFL 529 NSCLC
  TGI: 30.2 µM
M19-MEL melanoma
  TGI: 98.4 µM
SR leukemia
  TGI: 39.4 µM

## Oc1cn(-c2ccc(Cl)cc2)nc1-c1nnc(-c2ccccc2)o1
786-0 renal
  TGI: 12.2 µM
BT-549 breast
  GI50: 4.24 µM
  TGI: > 91.9 µM
HS 578T breast
  TGI: 40.8 µM
IGROV1 ovarian
  TGI: > 53.4 µM
MDA-MB-435
  TGI: 10.4 µM
PC-3 prostate
  TGI: > 66.6 µM
SR leukemia
  TGI: 20.8 µM
T-47D breast
  TGI: > 92.7 µM

## Cc1cc(C)n(C(=C(C(Cl)=C(Cl)Cl)[N+](=O)[O-])n2nc(C)cc2C)n1
BT-549 breast
  TGI: 16.3 µM
HS 578T breast
  TGI: 20.6 µM
IGROV1 ovarian
  TGI: 14.9 µM
MDA-MB-435
  TGI: 5.56 µM
MDA-N
  TGI: 13.8 µM
PC-3 prostate
  TGI: 13.6 µM
T-47D breast
  TGI: 23.1 µM

## O=c1cnn(C/C=C/CBr)c(=O)[nH]1
BT-549 breast
  TGI: 19.4 µM
HS 578T breast
  TGI: > 100 µM
IGROV1 ovarian
  TGI: 37.7 µM
MDA-MB-435
  TGI: 33.7 µM
MDA-N
  TGI: 33.3 µM
PC-3 prostate
  TGI: 36.4 µM
SR leukemia
  TGI: 42.8 µM
T-47D breast
  TGI: 57 µM

## NS(=O)(=O)c1ccc(N=Nc2nc3[nH]c(=O)[nH]c(=O)c3[nH]2)cc1
786-0 renal
  TGI: > 100 µM
BT-549 breast
  TGI: > 100 µM
HS 578T breast
  TGI: > 100 µM
IGROV1 ovarian
  TGI: > 100 µM
MDA-MB-435
  TGI: > 100 µM
MDA-N
  TGI: > 100 µM
PC-3 prostate
  TGI: > 100 µM
SR leukemia
  TGI: > 100 µM
T-47D breast
  TGI: > 100 µM

## CC1=CC(C)C/C=C/C2C3OC3(C)C(C)C3C(Cc4c[nH]c5ccccc45)NC(=O)C23C(=O)C=CC(=O)C1O (stereo not drawn)
786-0 renal
  TGI: 10.8 µM
BT-549 breast
  TGI: 10.3 µM
HS 578T breast
  TGI: 56.5 µM
IGROV1 ovarian
  TGI: 24.6 µM
MDA-MB-435
  TGI: 46.6 µM
MDA-N
  TGI: 22.6 µM
PC-3 prostate
  TGI: 30.1 µM
T-47D breast
  TGI: 3.76 µM

## CCCCN(CCCC)CC(O)c1cc(-c2ccc(C(F)(F)F)cc2)nc(-c2ccc(C(F)(F)F)cc2)c1 (stereo not drawn)
786-0 renal
  TGI: > 100 µM
IGROV1 ovarian
  TGI: > 100 µM
MDA-MB-435
  TGI: > 100 µM
PC-3 prostate
  TGI: > 100 µM
SR leukemia
  TGI: > 100 µM
T-47D breast
  TGI: > 100 µM

## O=C(O)c1ccc(Nc2c3ccccc3nc3ccccc23)cc1
DMS 114 small cell lung
  TGI: > 100 µM
IGROV1 ovarian
  TGI: > 100 µM
KM20L2 colon
  TGI: > 100 µM
M19-MEL melanoma
  TGI: > 100 µM

## CC(C)(C)[Si](OC1CC(n2cnc3c(N)ncnc32)OC1CO)(c1ccccc1)c1ccccc1 (stereo not drawn)
DLD-1 colon
  TGI: 30 µM
DMS 114 small cell lung
  TGI: 54.2 µM
IGROV1 ovarian
  TGI: 48 µM
KM20L2 colon
  TGI: 29.5 µM
LXFL 529 NSCLC
  TGI: > 100 µM
M19-MEL melanoma
  TGI: 42.9 µM
SR leukemia
  TGI: 43.8 µM

## COc1ccc(C2COc3cc(OC(C)=O)c(OC(C)=O)cc3C2)cc1 (stereo not drawn)
DLD-1 colon
  TGI: 54.8 µM
DMS 114 small cell lung
  TGI: 20.6 µM
IGROV1 ovarian
  TGI: 55.9 µM
KM20L2 colon
  TGI: 65.8 µM
M19-MEL melanoma
  TGI: 37.7 µM

## c1nc(OCC2CCCCC2)c2[nH]cnc2n1
786-0 renal
  TGI: > 100 µM
BT-549 breast
  TGI: > 100 µM
HS 578T breast
  TGI: > 100 µM
IGROV1 ovarian
  TGI: > 100 µM
MDA-MB-435
  TGI: > 100 µM
MDA-N
  TGI: > 100 µM
PC-3 prostate
  TGI: > 100 µM

## COc1ccc(N2C(=O)/C(=C(\C)c3cc4ccccc4oc3=O)N=C2c2cc([N+](=O)[O-])ccc2Cl)cc1
DLD-1 colon
  TGI: > 100 µM
DMS 114 small cell lung
  TGI: > 100 µM
IGROV1 ovarian
  TGI: > 100 µM
KM20L2 colon
  TGI: > 100 µM
LXFL 529 NSCLC
  TGI: > 100 µM
M19-MEL melanoma
  TGI: > 100 µM
SR leukemia
  TGI: > 100 µM

## O=C(O)CC(CC(=O)O)C(=O)O
786-0 renal
  TGI: > 100 µM
BT-549 breast
  TGI: > 100 µM
HS 578T breast
  TGI: > 100 µM
IGROV1 ovarian
  TGI: > 100 µM
MDA-MB-435
  TGI: > 100 µM
MDA-N
  TGI: > 100 µM
PC-3 prostate
  TGI: > 100 µM
SR leukemia
  TGI: > 100 µM
T-47D breast
  TGI: > 100 µM

## FC(F)(F)c1ccc(N=C/C=C(/Nc2ccc(C(F)(F)F)cc2)c2ccc(Cl)cc2)cc1
786-0 renal
  TGI: 37.9 µM
HS 578T breast
  TGI: 38.2 µM
IGROV1 ovarian
  TGI: 25.5 µM
MDA-MB-435
  TGI: 23 µM
PC-3 prostate
  TGI: 75.8 µM
SR leukemia
  TGI: > 100 µM
T-47D breast
  TGI: 39.9 µM

## CC(=O)N(C)c1ccc(Nc2cc(C)[nH]c3ccc4ncnc4c23)cc1
786-0 renal
  TGI: 18.8 µM
BT-549 breast
  TGI: 24.5 µM
DLD-1 colon
  TGI: 74.2 µM
DMS 114 small cell lung
  TGI: 20.4 µM
HS 578T breast
  TGI: 35.5 µM
IGROV1 ovarian
  TGI: 64.4 µM
KM20L2 colon
  TGI: 37.2 µM
M19-MEL melanoma
  TGI: 20.1 µM
MDA-MB-435
  TGI: 23.3 µM
MDA-N
  TGI: 23.9 µM
PC-3 prostate
  TGI: 18 µM
SR leukemia
  TGI: 23 µM
T-47D breast
  TGI: 39.6 µM

## CCOc1cc2c(OCc3ccccc3)cc3c4cc(OC)c(OC)cc4c[n+](C)c3c2cc1OC
786-0 renal
  TGI: 26.6 µM
BT-549 breast
  TGI: 4.72 µM
PC-3 prostate
  TGI: 4.84 µM
T-47D breast
  TGI: > 100 µM

## CN(C)CCCNC(=O)c1cc2[nH]c3c(cnc4ccc([N+](=O)[O-])cc43)c(=O)c2n1C
BT-549 breast
  GI50: 20.2 µM
  TGI: 43.2 µM
HS 578T breast
  GI50: 18.1 µM
  TGI: 41.3 µM
IGROV1 ovarian
  GI50: 12.5 µM
  TGI: 27.7 µM
MDA-MB-435
  GI50: 17.3 µM
  TGI: 33.6 µM
SR leukemia
  GI50: 14.5 µM
  TGI: 43.3 µM
T-47D breast
  GI50: 19.3 µM
  TGI: 39.2 µM
